According to US8906925B2, “Pyrido[4,3-B]indoles containing rigid moieties” (Medivation Technologies, Inc., priority 2008, dated 2014):
Values joined by “and” are separate entries in the source; they are usually repeats but may differ in a detail not shown here. Equal values may be shown once. Read-outs that look alike come from different tables or passages of the source.

Key:
[1] = target: T1, human recombinant adrenergic α2B receptor (Homo sapiens, UniProt P18089); test: Adrenergic α2B radioligand binding ([3H]Rauwolscine); conditions: compound at 1 μM
T1 construct: expressed in transfected cells; host or cells: Chinese hamster ovary (CHO-K1) cells
T1 sequence (P18089 1-450): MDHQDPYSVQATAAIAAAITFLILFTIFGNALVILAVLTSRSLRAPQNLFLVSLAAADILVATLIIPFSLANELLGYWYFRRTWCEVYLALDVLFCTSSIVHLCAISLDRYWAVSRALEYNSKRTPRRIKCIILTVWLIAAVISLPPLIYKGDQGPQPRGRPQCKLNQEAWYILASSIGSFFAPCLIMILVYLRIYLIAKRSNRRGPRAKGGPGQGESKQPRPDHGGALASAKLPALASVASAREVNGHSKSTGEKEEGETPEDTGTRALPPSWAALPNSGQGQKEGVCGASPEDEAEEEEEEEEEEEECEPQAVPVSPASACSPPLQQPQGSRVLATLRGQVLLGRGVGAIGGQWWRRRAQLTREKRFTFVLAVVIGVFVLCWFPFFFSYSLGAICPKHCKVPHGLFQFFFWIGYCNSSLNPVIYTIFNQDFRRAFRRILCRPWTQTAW
Outline: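 Membranes from CHO-K1 cells expressing the receptor were incubated with 2.5 nM [3H]Rauwolscine for 60 min at 25 °C in Tris-HCl buffer pH 7.4 with MgCl2, EDTA and BSA. Non-specific binding was defined with 10 μM prazosin. Compounds were tested at ≤1 μM in 1% DMSO and read out as % inhibition of specific binding after filtration.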

[2] = target: T2, human recombinant histamine H2 receptor (Homo sapiens, UniProt P25021); test: Histamine H2 radioligand binding ([125I]Aminopotentidine); conditions: for inhibition at 1 µM: read-out: Histamine Binding (1 μM) H2, percent inhibition of specific binding, 1 μM
T2 construct: expressed in transfected cells; host or cells: Chinese hamster ovary (CHO) K1 cells
T2 sequence (P25021 whole entry): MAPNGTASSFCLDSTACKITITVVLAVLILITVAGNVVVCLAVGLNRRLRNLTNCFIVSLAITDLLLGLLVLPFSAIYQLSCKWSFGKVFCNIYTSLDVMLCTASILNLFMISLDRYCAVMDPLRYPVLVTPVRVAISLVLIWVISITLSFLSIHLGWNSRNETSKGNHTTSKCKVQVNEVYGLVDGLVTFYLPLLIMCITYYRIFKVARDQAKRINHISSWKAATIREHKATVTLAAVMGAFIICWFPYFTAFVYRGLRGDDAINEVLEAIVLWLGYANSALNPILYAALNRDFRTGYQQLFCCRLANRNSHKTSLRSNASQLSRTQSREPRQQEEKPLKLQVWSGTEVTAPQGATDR
Outline: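 Receptor source: human recombinant H2 in CHO-K1 cells, assayed in 50 mM phosphate pH 7.4. Competition against 0.1 nM [125I]aminopotentidine, 120 min, 25 °C; 3 μM tiotidine sets nonspecific binding, filter-bound counts give specific binding.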

[3] = target: T3, human recombinant adrenergic α2A receptor (Homo sapiens, UniProt P08913); test: Adrenergic α2A radioligand binding ([3H]MK-912); conditions: compound at 1 μM
T3 construct: expressed in transfected cells; host or cells: insect Sf9 cells
T3 sequence (P08913 1-465): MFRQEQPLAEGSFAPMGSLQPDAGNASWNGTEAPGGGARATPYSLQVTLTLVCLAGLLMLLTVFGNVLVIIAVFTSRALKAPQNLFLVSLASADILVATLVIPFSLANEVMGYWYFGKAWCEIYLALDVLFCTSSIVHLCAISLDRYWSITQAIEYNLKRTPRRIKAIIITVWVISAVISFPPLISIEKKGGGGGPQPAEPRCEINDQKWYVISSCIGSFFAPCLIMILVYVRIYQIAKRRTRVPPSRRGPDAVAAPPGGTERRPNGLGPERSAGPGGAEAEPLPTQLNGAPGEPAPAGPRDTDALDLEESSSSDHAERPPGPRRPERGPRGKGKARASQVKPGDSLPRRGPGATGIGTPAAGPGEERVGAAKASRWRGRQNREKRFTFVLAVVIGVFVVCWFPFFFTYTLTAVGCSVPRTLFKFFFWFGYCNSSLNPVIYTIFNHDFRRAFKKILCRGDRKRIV
Outline: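 Sf9-expressed human receptor in 50 mM Tris-HCl pH 7.4, 12.5 mM MgCl2, 2 mM EDTA; compounds at 1 μM or lower (1% DMSO) incubated with 1 nM [3H]MK-912 for 60 min at 25° C. Non-specific binding defined with 10 μM WB-4101; filtered bound radioactivity counted, reported as percent inhibition of specific binding.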

[4] = target: T4, human recombinant serotonin (5-Hydroxytryptamine) 5-HT6 receptor (Homo sapiens, UniProt P50406); test: Serotonin 5-HT6 radioligand binding ([3H]LSD); conditions: for inhibition at 1 µM / Inhibition of ligand binding, Serotonin 5-HT6 (percent inhibition of specific binding): compound at 1 μM; for Inhibition of ligand binding, Serotonin 5-HT6 (percent inhibition of specific binding): 1 µM
T4 construct: expressed in transfected cells; host or cells: human HeLa cells
T4 sequence (P50406 whole entry): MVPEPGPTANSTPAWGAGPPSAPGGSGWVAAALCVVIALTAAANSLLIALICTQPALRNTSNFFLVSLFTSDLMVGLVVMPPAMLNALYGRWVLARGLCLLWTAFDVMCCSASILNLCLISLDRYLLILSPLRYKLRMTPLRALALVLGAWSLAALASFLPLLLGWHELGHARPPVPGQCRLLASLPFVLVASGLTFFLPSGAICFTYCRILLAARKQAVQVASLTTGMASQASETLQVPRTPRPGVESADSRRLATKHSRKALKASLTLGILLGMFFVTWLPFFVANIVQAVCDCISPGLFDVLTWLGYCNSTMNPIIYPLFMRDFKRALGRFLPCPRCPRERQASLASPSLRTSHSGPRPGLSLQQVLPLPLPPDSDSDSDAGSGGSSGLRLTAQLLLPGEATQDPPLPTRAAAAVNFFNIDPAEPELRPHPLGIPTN
Description: Compounds of the invention were incubated with 1.5 nM [3H]Lysergic acid diethylamide (LSD) for 120 min. at 37° C. […] Receptor proteins were filtered and washed, the filters were then counted to determine [3H]LSD specifically bound. Compounds were screened at 1 μM or lower, using 1% DMSO as vehicle. Biochemical assay results are presented as the percent inhibition of specific binding in Table 10.

[5] = percent inhibition of specific binding, read-out: Inhibition of ligand binding, Adrenergic α2B
[6] = percent inhibition of specific binding, read-out: Inhibition of ligand binding, Adrenergic α2A
[7] = read-out: Inhibition of ligand binding, Serotonin 5-HT6 (percent inhibition of specific binding)
[8] = percent inhibition of specific binding, 1 µM
[9] = […] [3H]Rauwolscine, read-out: Inhibition of ligand binding, Adrenergic α2B (percent inhibition of specific binding)
[10] = read-out: Inhibition of ligand binding, Adrenergic α2A (percent inhibition of specific binding)

| SMILES | inhibition at 1 µM [1, 5] [%] | inhibition at 1 µM [2] [%] | inhibition at 1 µM [3, 6] [%] | inhibition at 1 µM [4, 7] [%] | Inhibition of ligand binding, Adrenergic α2B [1, 8] [%] | Histamine Binding (1 μM) H2, percent inhibition of specific binding ([2]; 1 μM) [%] | Inhibition of ligand binding, Adrenergic α2A [3, 8] [%] | Inhibition of ligand binding, Serotonin 5-HT6 (percent inhibition of specific binding) [4] | inhibition at 0.1 µM ([4]; compound at 0.1 μM, read-out: Inhibition of ligand binding, Serotonin 5-HT6 (percent inhibition of specific binding)) [%] | inhibition at 1 µM [1, 9] [%] | inhibition at 1 µM [3, 10] [%] |
| --- | --- | --- | --- | --- | --- | --- | --- | --- | --- | --- | --- |
| CN1CCc2c(c3cc(Cl)ccc3n2/C=C(/c2ccc(F)cc2)C2CCC2)C1 [Compound 206, (E)-8-chloro-5-(2-cyclobutyl-2-(4-fluorophenyl)vinyl)-2-methyl-2,3,4,5-tetrahydro-1H-pyrido[4,3-b]indole] | 89 | 102 | 96 | 102 |  |  |  |  |  |  |  |
| CNC(=O)C/C(=C\n1c2c(c3cc(C)ccc31)CN(C)CC2)c1ccc(F)cc1 [Compound 207, (E)-4-(2,8-dimethyl-3,4-dihydro-1H-pyrido[4,3-b]indol-5(2H)-yl)-3-(4-fluorophenyl)-N-methylbut-3-enamide] | 80 | 46 | 86 | 58 |  |  |  |  |  |  |  |
| CCCC/C(=C\n1c2c(c3cc(Cl)ccc31)CN(C)CC2)c1ccc(F)cc1 [Compound 208, (E)-8-chloro-5-(2-(4-fluorophenyl)hex-1-enyl)-2-methyl-2,3,4,5-tetrahydro-1H-pyrido[4,3-b]indole] | 103 | 102 | 99 | 103 |  |  |  |  |  |  |  |
| Cc1ccc2c(c1)c1c(n2/C=C(\CC(=O)O)c2ccc(F)cc2)CCN(C)C1 [Compound 209, (E)-4-(2,8-dimethyl-3,4-dihydro-1H-pyrido[4,3-b]indol-5(2H)-yl)-3-(4-fluorophenyl)but-3-enoic acid] | 59 | 20 | 30 | 41 |  |  |  |  |  |  |  |
| C/C(=C\n1c2c(c3cc(Cl)ccc31)CN(C)CC2)c1ccc(Cl)cc1Cl [Compound 210, (E)-8-chloro-5-(2-(2,4-dichlorophenyl)prop-1-enyl)-2-methyl-2,3,4,5-tetrahydro-1H-pyrido[4,3-b]indole] |  |  |  |  | 102 | 96 | 79 | 76% |  |  |  |
| C/C(=C\n1c2c(c3cc(C)ccc31)CN(C)CC2)c1ccc(Cl)cc1 [Compound 211, (E)-5-(2-(4-chlorophenyl)prop-1-enyl)-2,8-dimethyl-2,3,4,5-tetrahydro-1H-pyrido[4,3-b]indole] | 114 | 100 | 97 | 98 |  |  |  |  | 60 |  |  |
| C/C(=C/n1c2c(c3cc(Cl)ccc31)CN(C)CC2)c1ccccc1F [Compound 212, (Z)-8-chloro-5-(2-(2-fluorophenyl)prop-1-enyl)-2-methyl-2,3,4,5-tetrahydro-1H-pyrido[4,3-b]indole] | 105 | 84 | 88 | 97 |  |  |  |  |  |  |  |
| C/C(=C\n1c2c(c3cc(Cl)ccc31)CN(C)CC2)c1ccccc1F [Compound 213, (E)-8-chloro-5-(2-(2-fluorophenyl)prop-1-enyl)-2-methyl-2,3,4,5-tetrahydro-1H-pyrido[4,3-b]indole] | 103 | 99 | 88 | 100 |  |  |  |  |  |  |  |
| CN1CCc2c(c3cc(Cl)ccc3n2C2=C(c3cccnc3)CCCC2)C1 [Compound No. 166, 8-chloro-2-methyl-5-(2-(pyridin-3-yl)cyclohex-1-enyl)-2,3,4,5-tetrahydro-1H-pyrido[4,3-b]indole] | 63 | 56 | 44 | 6 |  |  |  |  |  |  |  |
| Cc1ccc2c(c1)c1c(n2CC(O)(c2ccccc2)c2ccc(F)cc2)CCN(C)C1 (stereo not drawn) [Compound No. 176, 2-(2,8-dimethyl-3,4-dihydro-1H-pyrido[4,3-b]indol-5(2H)-yl)-1-(4-fluorophenyl)-1-phenylethanol] | 95 | 74 | 94 | 82 |  |  |  |  |  |  |  |
| CCOC(=O)/C=C(/Cn1c2c(c3cc(C)ccc31)CN(C)CC2)c1ccccc1 [Compound No. 347, (E)-ethyl 4-(2,8-dimethyl-3,4-dihydro-1H-pyrido[4,3-b]indol-5(2H)-yl)-3-phenylbut-2-enoate] | 111 | 87 | 96 | 101 |  |  |  |  |  |  |  |
| CN1CCc2c(c3cc(Cl)ccc3n2C/C(=C\CCO)c2ccc(F)cc2)C1 [Compound No. 348, (Z)-5-(8-chloro-2-methyl-3,4-dihydro-1H-pyrido[4,3-b]indol-5(2H)-yl)-4-(4-fluorophenyl)pent-3-en-1-ol] | 105 | 73 | 92 | 94 |  |  |  | 98% |  |  |  |
| CN1CCc2c(c3cc(Cl)ccc3n2C/C(=C/CCO)c2ccc(F)cc2)C1 [Compound No. 349, (E)-5-(8-chloro-2-methyl-3,4-dihydro-1H-pyrido[4,3-b]indol-5(2H)-yl)-4-(4-fluorophenyl)pent-3-en-1-ol] | 102 | 84 | 97 | 102 |  |  |  | 103% |  |  |  |
| CCOC(=O)/C=C(/Cn1c2c(c3cc(C)ccc31)CN(C)CC2)c1ccc(F)cc1 [Compound No. 350, (E)-ethyl 4-(2,8-dimethyl-3,4-dihydro-1H-pyrido[4,3-b]indol-5(2H)-yl)-3-(4-fluorophenyl)but-2-enoate] |  | 93 |  | 103 |  |  |  |  |  | 107 | 95 |
| CCC/C=C(/Cn1c2c(c3cc(Cl)ccc31)CN(C)CC2)c1ccc(F)cc1 [Compound No. 351, (E)-8-chloro-5-(2-(4-fluorophenyl)hex-2-enyl)-2-methyl-2,3,4,5-tetrahydro-1H-pyrido[4,3-b]indole] |  | 100 |  | 103 |  |  |  |  |  | 99 | 84 |
| Cc1ccc2c(c1)c1c(n2C/C(=C/C(=O)O)c2ccc(F)cc2)CCN(C)C1 [Compound No. 352, (E)-4-(2,8-dimethyl-3,4-dihydro-1H-pyrido[4,3-b]indol-5(2H)-yl)-3-(4-fluorophenyl)but-2-enoic acid] |  | 15 |  | 32 |  |  |  |  |  | 47 | 34 |
| CN1CCc2c(c3cc(Cl)ccc3n2C#Cc2ccc(F)cc2)C1 [Compound No. 475, 8-chloro-5-((4-fluorophenyl)ethynyl)-2-methyl-2,3,4,5-tetrahydro-1H-pyrido[4,3-b]indole] |  | 91 |  | 99 |  |  |  |  |  | 106 | 93 |
| Cc1ccc2c(c1)c1c(n2C#Cc2ccc(C)nc2)CCN(C)C1 [Compound No. 476, 2,8-dimethyl-5-((6-methylpyridin-3-yl)ethynyl)-2,3,4,5-tetrahydro-1H-pyrido[4,3-b]indole] |  | 88 |  |  |  |  |  | 64% and 86% |  | 87 | 96 |
